Test results reported in patent publication US20010018071A1, “Oral 2-methyl-thieno-benzodiazepine formulation” (priority 1995, published 2001).

Tests used:
[1] = Discoloration of olanzapine on contact with excipients; assay type: physicochemical
Source text: Further, the discoloration was exacerbated by ambient air conditions, at elevated temperatures, and by moist environments.
(§1) The Form I 2-methyl-4-(4-methyl-1-piperazinyl)-10H-thieno[2,3-b]

[2] = Polymorph stability and transformation; assay type: physicochemical; settings: for polymorph stability: anhydrous crystal forms
Source text: Unfortunately, anhydrous Form II olanzapine is metastable and is therefore not well suited for commercial use in pharmaceutical formulations. Applicants have discovered that the pharmaceutically elegant anhydrous Form I olanzapine can be formulated in its substantially pure form as a stable solid oral preparation. Such formulation provides assurance of a uniform pharmaceutically elegant product substantially free of Form II impurity in order to comply with regulatory requirements.
Further certain excipients exacerbate physical instability. For commercial pharmaceutical development and compliance with regulatory guidelines, it is important to assure that marketed formulations comprise a uniform pharmaceutically elegant substantially pure anyhydrous Form I 2-methyl-4-(4-methyl-1-piperazinyl)-10H-thieno[2,3-b] [1,5] benzodiazepine compound as the active ingredient and most preferably the formulation is free from undesired discolorations.
as §1

[3] = Detection of radiolabelled compound in saliva; assay type: in vivo
Experimental: The anhydrous Form I 2-methyl-4-(4-methyl-1-piperazinyl)-10H-thieno-[2,3-b][1,5]benzodiazepine compound is effective over a wide dosage range, the actual dose administered being dependent on the condition being treated. For example, in the treatment of adult humans, dosages of from about 0.25 to 50 mg, preferably from 1 to 30 mg, and most preferably 1 to 20 mg per day may be used. A once a day dosage is normally sufficient, although divided doses may be administered. For treatment of central nervous system disorders, a dose range of from 1 to 30 mg, preferably 1 to 20 mg per day is suitable. Radiolabelled Form I 2-methyl-4-(4-methyl-1-piperazinyl)-10H-thieno-[2,3-b]

In the case of `Cc1cc2c(s1)Nc1ccccc1N=C2N1CCN(C)CC1` [olanzapine, 2-methyl-4-(4-methyl-1-piperazinyl)-10H-thieno[2,3-b][1,5] benzodiazepine], the discoloration ([1]; contacted with certain excipients including powder blends) is reported as “undergoes undesirable discoloration” and the discoloration ([1]; polyethylene glycol contact, particularly under moist conditions) is reported as “produces undesired discoloration”.

With `Cc1cc2c(s1)Nc1ccccc1N=C2N1CCN(C)CC1` [Form I olanzapine, 2-methyl-4-(4-methyl-1-piperazinyl)-10H-thieno[2,3-b][1,5] benzodiazepine] the polymorph stability [2] was “most stable known form” and the polymorphic conversion ([2]; contact with methylene chloride) was “can be converted to the less desirable polymorphic forms”.

In the case of `Cc1cc2c(s1)Nc1ccccc1N=C2N1CCN(C)CC1` [anhydrous Form II olanzapine, 2-methyl-4-(4-methyl-1-piperazinyl)-10H-thieno[2,3-b][1,5] benzodiazepine], the polymorph stability [2] is reported as “metastable”.

In the case of `Cc1cc2c(s1)Nc1ccccc1N=C2N1CCN(C)CC1` [2-methyl-4-(4-methyl-1-piperazinyl)-10H-thieno-[2,3-b] [1,5]benzodiazepine], the detection in saliva [3] is reported as “can be detected in the saliva”.
